According to ChEMBL document CHEMBL5032490, “Neuroactive Type-A γ-Aminobutyric Acid Receptor Allosteric Modulator Steroids from the Hypobranchial Gland of Marine Mollusk, Conus geographus” (J Med Chem, 2021):
Calls of active or inactive are those of the source. The calls are words filed in the database; no cut-off is given here.

What was measured:
[1] = Reduction of ATP and Kcl-induced increase in cytosolic Ca2+ ion concentration mouse […] assessed as neuron population at 10 uM measured after 1 hr by Fura2AM dye based fluorescence microscopic analysis; type: functional; parameters: scale not given: the % may be the effect or the level left
[2] = Induction of ATP and Kcl-induced increase in cytosolic Ca2+ ion concentration mouse non-peptidergic nociceptive DRG neuron assessed as neuron population at 10 uM measured after 1 hr by Fura2AM dye based fluorescence microscopic analysis; type: functional
[3] = Reduction of ATP and Kcl-induced increase in cytosolic Ca2+ ion concentration mouse non-peptidergic nociceptive DRG neuron assessed as neuron population at 10 uM measured after 1 hr by Fura2AM dye based fluorescence microscopic analysis; type: functional; parameters: scale not given: the % may be the effect or the level left
[4] = target: T1, GABA-A receptor; alpha-1/beta-3/gamma-2 (Homo sapiens, UniProt P14867+P18507+P28472); test: Negative allosteric modulation activity at human GABAA alpha1beta3gamma2 stably expressed in HEK cells by whole cell patch clamp method; type: cell-based
T1 sequence (P14867 whole entry): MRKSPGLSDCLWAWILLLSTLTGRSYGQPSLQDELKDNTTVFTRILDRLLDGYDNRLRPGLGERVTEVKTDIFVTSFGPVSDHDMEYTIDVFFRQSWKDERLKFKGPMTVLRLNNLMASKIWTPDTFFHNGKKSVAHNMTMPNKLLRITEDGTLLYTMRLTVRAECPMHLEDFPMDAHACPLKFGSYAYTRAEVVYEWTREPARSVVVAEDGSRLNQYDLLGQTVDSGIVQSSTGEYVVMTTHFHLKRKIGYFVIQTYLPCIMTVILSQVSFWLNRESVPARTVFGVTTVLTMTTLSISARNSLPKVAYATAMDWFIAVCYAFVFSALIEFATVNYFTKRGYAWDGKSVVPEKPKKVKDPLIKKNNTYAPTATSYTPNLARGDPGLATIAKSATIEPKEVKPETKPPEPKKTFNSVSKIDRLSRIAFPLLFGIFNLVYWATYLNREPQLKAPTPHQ
T1 sequence (P18507 whole entry): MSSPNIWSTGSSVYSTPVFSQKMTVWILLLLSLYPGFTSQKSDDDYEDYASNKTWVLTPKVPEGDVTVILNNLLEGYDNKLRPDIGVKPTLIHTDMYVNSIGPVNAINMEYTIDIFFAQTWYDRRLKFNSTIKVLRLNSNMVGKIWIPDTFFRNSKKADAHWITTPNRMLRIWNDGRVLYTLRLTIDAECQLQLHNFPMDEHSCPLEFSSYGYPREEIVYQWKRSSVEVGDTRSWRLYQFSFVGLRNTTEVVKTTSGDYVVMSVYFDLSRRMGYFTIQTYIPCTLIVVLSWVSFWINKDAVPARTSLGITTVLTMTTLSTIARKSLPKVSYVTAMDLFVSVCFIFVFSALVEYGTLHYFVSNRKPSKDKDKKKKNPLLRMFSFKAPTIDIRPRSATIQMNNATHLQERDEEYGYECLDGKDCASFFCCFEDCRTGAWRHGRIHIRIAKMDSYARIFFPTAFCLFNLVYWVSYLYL
T1 sequence (P28472 whole entry): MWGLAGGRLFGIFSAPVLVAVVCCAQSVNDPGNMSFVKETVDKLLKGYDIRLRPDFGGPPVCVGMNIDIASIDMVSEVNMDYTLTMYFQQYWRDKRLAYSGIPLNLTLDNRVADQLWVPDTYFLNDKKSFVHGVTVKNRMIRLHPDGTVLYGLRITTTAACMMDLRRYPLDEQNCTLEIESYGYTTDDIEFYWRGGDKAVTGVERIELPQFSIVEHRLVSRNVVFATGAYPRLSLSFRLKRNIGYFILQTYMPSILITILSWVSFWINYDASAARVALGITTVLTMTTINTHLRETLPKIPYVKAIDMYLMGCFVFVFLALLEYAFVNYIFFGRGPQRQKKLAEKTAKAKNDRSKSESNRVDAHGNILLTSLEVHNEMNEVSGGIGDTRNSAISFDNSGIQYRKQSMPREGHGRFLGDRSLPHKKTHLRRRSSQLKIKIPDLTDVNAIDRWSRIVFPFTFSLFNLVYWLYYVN

[5] = target: T2, GABA-A receptor; alpha-2/beta-3/gamma-2 (Homo sapiens, UniProt P18507+P28472+P47869); test: Negative allosteric modulation activity at human GABAA alpha2beta3gamma2 stably expressed in HEK cells by whole cell patch clamp method; type: cell-based
T2 sequence (P18507 whole entry): T1 sequence (P18507 whole entry)
T2 sequence (P28472 whole entry): T1 sequence (P28472 whole entry)
T2 sequence (P47869 whole entry): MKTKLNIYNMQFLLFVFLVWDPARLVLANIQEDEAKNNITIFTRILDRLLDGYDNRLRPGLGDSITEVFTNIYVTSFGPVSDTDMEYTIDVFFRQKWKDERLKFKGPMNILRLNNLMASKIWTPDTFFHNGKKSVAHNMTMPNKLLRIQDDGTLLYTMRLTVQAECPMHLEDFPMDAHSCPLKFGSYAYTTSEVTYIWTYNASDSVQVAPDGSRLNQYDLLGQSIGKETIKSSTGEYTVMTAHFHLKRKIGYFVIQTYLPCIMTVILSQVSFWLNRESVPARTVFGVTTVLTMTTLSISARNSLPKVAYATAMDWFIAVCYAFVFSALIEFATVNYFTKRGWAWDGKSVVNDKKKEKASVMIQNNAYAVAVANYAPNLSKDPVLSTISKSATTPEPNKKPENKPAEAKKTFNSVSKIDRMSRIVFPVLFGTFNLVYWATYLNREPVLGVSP

[6] = target: T3, GABA-A receptor; alpha-3/beta-3/gamma-2 (Homo sapiens, UniProt P18507+P28472+P34903); test: Negative allosteric modulation activity at human GABAA alpha3beta3gamma2 stably expressed in HEK cells by whole cell patch clamp method; type: cell-based
T3 sequence (P18507 whole entry): T1 sequence (P18507 whole entry)
T3 sequence (P28472 whole entry): T1 sequence (P28472 whole entry)
T3 sequence (P34903 whole entry): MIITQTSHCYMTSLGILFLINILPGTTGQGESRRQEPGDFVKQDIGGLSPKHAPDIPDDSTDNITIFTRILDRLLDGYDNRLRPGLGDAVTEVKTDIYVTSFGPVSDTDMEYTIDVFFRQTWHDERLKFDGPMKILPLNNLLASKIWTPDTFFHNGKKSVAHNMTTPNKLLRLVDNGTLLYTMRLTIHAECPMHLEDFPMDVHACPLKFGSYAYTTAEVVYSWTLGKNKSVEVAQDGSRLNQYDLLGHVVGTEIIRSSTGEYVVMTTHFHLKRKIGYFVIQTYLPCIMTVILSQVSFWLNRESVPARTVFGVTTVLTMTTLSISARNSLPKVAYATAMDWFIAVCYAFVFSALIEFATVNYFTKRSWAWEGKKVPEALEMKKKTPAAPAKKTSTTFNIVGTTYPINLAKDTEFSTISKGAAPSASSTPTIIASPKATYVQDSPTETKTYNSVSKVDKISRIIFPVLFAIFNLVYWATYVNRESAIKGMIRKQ

[7] = test system: Neuron; test: Negative allosteric modulation of human GABA receptor expressed in mouse DRG neurons assessed as inhibition of 340 nM GABA-induced responses at 0.5 uM using nociceptor; type: tissue-based; conditions: filed as negative allosteric modulator
[8] = test system: Mus musculus; test: Anxiolytic activity in restraint stress induced anxiety mouse model assessed as total number of responses at 2 to 50 mg/kg, ip administered measured after 5 mins by plus maze test; type: functional, organism-based; conditions: dose 2-50 mg/kg

CC(C)CCC[C@@H](C)[C@H]1CC[C@H]2[C@@H]3C(=O)C=C4C=CCC[C@]4(C)[C@H]3CC[C@]12C
Activity [1]: 14%
Activity [2]: 39%
Activity [3]: 9%
IC50 [4]: 21 µM
IC50 [5]: 15.7 µM
IC50 [6]: 5.5 µM
Activity [7]: Active
Activity [8]: inactive
